Columns and labels:
[1] = test system: mouse models for Wernicke-Korsakoff syndrome; conditions: 500 mg thiamine 3×/day; both models (thiamine-deficient diet, with or without pyrithiamine); cited from earlier work
[2] = test system: mice on a thiamine-deficient diet
WKS mouse models = test: Body weight and disease onset of WKS mouse model (0 ppm thiamine and pyrithiamine injections) in normoxia versus hypoxia; assay type: in vivo, mice
Experimental: FIG. 3 depicts the body weight of Wernicke-Korsakoff (WKS) Animal Model (0 ppm thiamine and pyrithiamine injections) in normoxia versus hypoxia using the methods described herein.
Hypoxia and moderate hyperoxia exposure were tested in these mouse models of WK syndrome. Six groups of mice for each different oxygen exposure will be used—(no disease, moderate disease, extreme disease)×(with or without thiamine treatment starting day 10 of the disease model). […] This sample size should be sufficient to detect a 30% increase in survival with 80% power. Disease progression in these different conditions will be carefully monitored. Daily body weights from the beginning of treatment will be taken. Additionally, behavior was monitored on a weekly basis using rotarod tests, open field experiments and the Y-maze memory test. For 3 mice per group, T2-weighted MRI scans was performed once per week. This will allow the monitoring of the disease progression and reversal. For a separate set of 3 mice per group, mice were sacked, and neuropathology performed, staining for neuronal cell loss (using NeuN) or neuroinflammatory signatures (using antibodies against GFAP) similar to that performed in Jain et. al.
FIG. 3 depicts the results of WKS mouse models being treated at 21% O2 (normoxia) and 11% O2 (hypoxia) for a span of 20 days. […] Hypoxia began on Day 3 of the experiment.

[3] = test system: mice with thiamine-deficiency; test: Symptoms caused by thiamine deficiency (blood lactate, grip strength, body temperature) under different oxygen tensions; assay type: in vivo
Source text: FIGS. 6A-6E depict the results of lowering FiO2 on the symptoms caused by thiamine deficiency. Blood lactate measured in mice housed under different oxygen tensions 21 and 35 days after the diets started. […] Muscle strength assessed by grip strength of mice administered with 17 ppm or 0 ppm thiamine for 21 days. Muscle strength is compromised in mice with thiamine-deficiency under 55% and 21% oxygen (FIG. 6C). […] Student's t-test * p<0.05, ** p<0.01, […]. While the present invention has been described with reference to the specific embodiments thereof, it should be understood by those skilled in the art that various changes may be made and equivalents may be substituted without departing from the true spirit and scope of the invention. In addition, many modifications may be made to adapt a particular situation, material, composition of matter, process, process step or steps, to the objective, spirit and scope of the present invention. All such modifications are intended to be within the scope of the claims appended hereto.

SMILES | disease progression in thiamine-deficiency models [1] | onset of weight loss ([2]; 8% O2 (extreme hypoxia)) | survival at 60 days after start of thiamine-deficient diet ([2]; 8% O2 (extreme hypoxia)) | survival time ([2]; 8% O2 (extreme hypoxia)) | extension of survival time ([2]; 11% O2, versus 21% O2 (median survival time 37 days)) | rate of body weight loss ([2]; 11% O2, versus 21% O2 (weight loss began at 21 days)) | disease progression ([2]; 55% O2) | disease onset (physiological signs of WKS) (WKS mouse models; 11% O2 (hypoxia) begun on Day 3, span of 20 days, versus 21% O2 (normoxia)) | significant drop of body-weight at Day 14 (WKS mouse models; 11% O2 (hypoxia), body-weight at 21% O2 dropped significantly at Day 14) | body temperature ([3]; 11% O2, thiamine-deficient diet for 43 days, mice under normoxic air exhibit hypothermia) | muscle strength assessed by grip strength ([3]; 55% oxygen, 0 ppm thiamine for 21 days) | blood lactate ([3]; 55% oxygen, day 21 and day 35 after the diets started, severe disease state)
Cc1ncc(C[n+]2csc(CCO)c2C)c(N)n1 [thiamine] | can be reversed |  |  |  |  |  |  |  |  |  |  | 
O=O [O2, oxygen] |  | further delayed the onset of weight loss | some mice were still alive at 60 days | extended the survival time | approximately 13 days | lost body weight at a slower rate | exacerbated the disease progression | prevented disease onset | did not | normal body temperatures | compromised | lactic acidosis

— US12156877B1, “Methods of treating conditions related to a thiamine deficiency, a thiamine-dependent enzyme, or an associated cofactor” (The Regents of the University of California, priority 2019, dated 2024)
